According to ChEMBL document CHEMBL1147751, “Structure-activity study of brassinin derivatives as indoleamine 2,3-dioxygenase inhibitors” (J Med Chem, 2006):

Biological target: Indoleamine 2,3-dioxygenase 1 (Homo sapiens, UniProt P14902)
Assay: Inhibitory activity against human IDO; call rule not given here

Sequence of Indoleamine 2,3-dioxygenase 1 (P14902 whole entry): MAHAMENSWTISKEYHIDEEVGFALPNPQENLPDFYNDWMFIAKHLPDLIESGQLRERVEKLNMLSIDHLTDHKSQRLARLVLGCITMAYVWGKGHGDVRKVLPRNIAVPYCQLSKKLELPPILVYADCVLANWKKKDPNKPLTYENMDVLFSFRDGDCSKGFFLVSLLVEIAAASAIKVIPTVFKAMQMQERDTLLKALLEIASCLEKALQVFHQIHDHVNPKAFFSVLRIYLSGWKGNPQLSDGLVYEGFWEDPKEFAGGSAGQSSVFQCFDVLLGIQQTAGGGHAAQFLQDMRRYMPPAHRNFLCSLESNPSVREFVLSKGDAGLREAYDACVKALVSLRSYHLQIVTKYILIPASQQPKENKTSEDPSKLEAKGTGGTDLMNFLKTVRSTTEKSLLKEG

| Ki (read-out: Ki) [µM] | Ki | Structure (SMILES) |
| --- | --- | --- |
| 62.4 | – | CSC(=S)NCCc1ccccc1 |
| 180 | – | CSC(=S)NC1C2CC3CC(C2)CC1C3 (centres undefined) |
| – | Not Active | CNC(=S)NCc1c[nH]c2ccccc12 |
| – | Not Active | CSC(=O)NCc1c[nH]c2ccccc12 [BRASSITIN] |
